Test: xn = mol fraction of the nth substance listed
Conditions: 101.3 kPa, Liquid; for speed of sound: Frequency=3 MHz, Single path-length method; for mass density: Vibrating tube method

CCOCCO [2-ethoxyethan-1-ol] + CCn1cc[n+](C)c1.O=S(=O)([O-])C(F)(F)F
Conditions	mass density, 298.15 K [kg/m3]	mass density, 303.15 K [kg/m3]	mass density, 308.15 K [kg/m3]	mass density, 313.15 K [kg/m3]	mass density, 318.15 K [kg/m3]	speed of sound, 298.15 K [m/s]	speed of sound, 303.15 K [m/s]	speed of sound, 308.15 K [m/s]	speed of sound, 313.15 K [m/s]	speed of sound, 318.15 K [m/s]
x2 = 0	926	921	917	912	907	1304	1287	1270	1252	1234
x2 = 0.067	981	976	971	967	962	1321	1305	1289	1272	1256
x2 = 0.133	1029	1024	1020	1015	1011	1333	1318	1302	1286	1271
x2 = 0.192	1066	1062	1058	1053	1049	1344	1329	1314	1299	1283
x2 = 0.268	1112	1107	1103	1099	1094	1356	1342	1328	1313	1299
x2 = 0.35	1157	1152	1148	1144	1139	1369	1355	1342	1328	1315
x2 = 0.428	1196	1191	1187	1183	1178	1380	1367	1354	1341	1328
x2 = 0.54	1245	1241	1237	1233	1228	1395	1383	1370	1358	1346
x2 = 0.609	1272	1268	1264	1260	1255	1403	1391	1379	1368	1356
x2 = 0.674	1295	1291	1287	1283	1278	1411	1399	1387	1376	1364
x2 = 0.734	1314	1310	1306	1302	1297	1417	1406	1394	1383	1372
x2 = 0.799	1332	1328	1324	1320	1315	1424	1412	1401	1390	1379
x2 = 0.884	1354	1350	1346	1342	1337	1431	1420	1409	1398	1387
x2 = 0.951	1371	1367	1363	1359	1354	1437	1425	1414	1403	1392

CCCOCCO [2-propoxyethanol] + CCn1cc[n+](C)c1.O=S(=O)([O-])C(F)(F)F
Conditions	mass density, 298.15 K [kg/m3]	mass density, 303.15 K [kg/m3]	mass density, 308.15 K [kg/m3]	mass density, 313.15 K [kg/m3]	mass density, 318.15 K [kg/m3]	speed of sound, 298.15 K [m/s]	speed of sound, 303.15 K [m/s]	speed of sound, 308.15 K [m/s]	speed of sound, 313.15 K [m/s]	speed of sound, 318.15 K [m/s]
x2 = 0	908	903	899	895	890	1301	1283	1266	1248	1231
x2 = 0.051	945	940	936	931	927	1308	1292	1275	1258	1241
x2 = 0.104	981	976	972	968	963	1317	1300	1284	1268	1252
x2 = 0.199	1042	1037	1033	1029	1024	1331	1316	1301	1286	1271
x2 = 0.241	1067	1063	1059	1054	1050	1338	1323	1308	1294	1279
x2 = 0.296	1098	1094	1089	1085	1081	1346	1332	1318	1304	1289
x2 = 0.416	1161	1157	1153	1149	1145	1364	1351	1338	1324	1311
x2 = 0.506	1204	1200	1196	1192	1187	1377	1364	1352	1339	1327
x2 = 0.606	1247	1243	1239	1235	1231	1391	1379	1367	1355	1343
x2 = 0.698	1284	1280	1276	1272	1268	1404	1392	1381	1369	1357
x2 = 0.808	1324	1320	1316	1311	1307	1419	1408	1396	1385	1374
x2 = 0.845	1336	1332	1328	1324	1320	1424	1413	1402	1390	1379
x2 = 0.898	1353	1349	1344	1340	1336	1431	1420	1409	1398	1386
x2 = 0.953	1369	1365	1361	1357	1353	1438	1427	1416	1405	1394

— the NIST ThermoML archive (doi:10.1016/j.jct.2019.05.023)
